# Reference: ChEMBL document CHEMBL3112428, “Biological evaluation of diazene derivatives as anti-tubercular compounds” (Eur J Med Chem, 2014)
# Activity calls are given as the source filed them. No cut-off for these calls is given here.
# Experiments:
# [1] = test system: Mycobacterium tuberculosis; assay: Antituberculosis activity against Mycobacterium tuberculosis H37Rv ATCC 27294 assessed as inhibition of bacterial replication after 6 days by luminometry analysis; format: functional, organism-based; conditions: H37Rv ATCC 27294, 144 h
# [2] = Selectivity index, ratio of IC50 for mouse J774A1 cells to IC50 for Mycobacterium tuberculosis H37Rv expressing pSMT1; format: toxicity, cell-based, J774.A1; conditions: read-out: Ratio IC50
# [3] = test system: Mycobacterium tuberculosis; assay: Antituberculosis activity against Mycobacterium tuberculosis H37Rv expressing lux gene infected in mouse J774A1 cells assessed as inhibition of bacterial replication at 3.13 ug/ml after 4 days by luminometry analysis; format: functional; conditions: J774.A1, 96 h
# [4] = test system: Mycobacterium tuberculosis; assay: Antituberculosis activity against Mycobacterium tuberculosis H37Rv expressing lux gene infected in mouse J774A1 cells assessed as inhibition of bacterial replication at 1.56 ug/ml after 4 days by luminometry analysis; format: functional; conditions: J774.A1, 96 h
# [5] = Cytotoxicity against mouse J774A1 cells after 24 hrs by neutral red uptake assay; format: cell-based; conditions: J774.A1, 24 h
# Mycobacterium ulcerans = assay: Antituberculosis activity against Mycobacterium ulcerans 1615 expressing lux gene assessed as inhibition of bacterial replication after 6 days by luminometry analysis; format: functional; conditions: Mycobacterium ulcerans, 1615, 144 h
# [6] = test system: Mycobacterium tuberculosis; assay: Antituberculosis activity against Mycobacterium tuberculosis H37Rv expressing lux gene assessed as inhibition of bacterial replication after 6 days by luminometry analysis; format: functional, organism-based; conditions: 144 h
# [7] = test system: Mycobacterium avium subsp. paratuberculosis; assay: Antituberculosis activity against Mycobacterium avium ssp. paratuberculosis ATCC 19698 expressing lux gene assessed as inhibition of bacterial replication after 6 days by luminometry analysis; format: functional, organism-based; conditions: ATCC 19698, 144 h
# [8] = Antituberculosis activity against Mycobacterium avium ssp. avium ATCC 15769 expressing lux gene assessed as inhibition of bacterial replication after 6 days by luminometry analysis; format: functional, Mycobacterium avium subsp. avium
# [9] = Genotoxicity in mouse J774A1 cells assessed as ratio of genomic DNA present in tail and head at 0.1 to 10 ug/ml after 24 hrs by comet assay; format: toxicity, cell-based; conditions: j774.a1, 24 h
# [10] = test system: Mycobacterium tuberculosis; assay: Antituberculosis activity against Mycobacterium tuberculosis H37Rv ATCC 27294 assessed as inhibition of bacterial replication at < 10 ug/ml after 6 days by luminometry analysis relative to control; format: functional
# [11] = test system: Mycobacterium tuberculosis; assay: Antituberculosis activity against Mycobacterium tuberculosis H37Rv expressing lux gene infected in mouse J774A1 cells assessed as inhibition of bacterial replication at 12.5 ug/ml after 4 days by luminometry analysis; format: functional; conditions: J774.A1, 96 h
# [12] = test system: Mycobacterium tuberculosis; assay: Antituberculosis activity against Mycobacterium tuberculosis H37Rv expressing lux gene infected in mouse J774A1 cells assessed as inhibition of bacterial replication at 0.78 to 6.25 ug/ml after 4 days by luminometry analysis; format: functional, organism-based; conditions: J774.A1
compound,measurement,setting,value
O=C(/N=N/c1c(F)c(F)c(F)c(F)c1F)Nc1ccccc1,IC50,[1],24.3 mg/L
same,IC90,[1],45.3 mg/L
same,IC99,[1],> 50 µg/mL
O=C(/N=N/c1ccc(C(F)(F)F)cc1)Nc1ccccc1,selectivity ratio,[2],30.2
same,inhibition at 3.13 µg/mL,[3],74.4%
same,inhibition at 1.56 µg/mL,[4],31.7%
same,IC50,[5],7.41 mg/L
same,IC50,Mycobacterium ulcerans,3.78 mg/L
same,IC50,[1],0.24 mg/L
same,IC90,[1],5.29 mg/L
same,IC99,[1],6.24 µg/mL
same,IC50,[6],0.24 mg/L
same,IC50,[7],0.98 mg/L
same,IC50,[8],1.03 mg/L
same,Activity,[9],Non-toxic
same,fold change (FC),[10],10
COC(=O)/N=N/C(=O)Nc1ccc(OC)cc1,IC50,[1],14.3 mg/L
same,IC90,[1],32.4 mg/L
same,IC99,[1],> 50 µg/mL
O=C(/N=N/c1ccc(F)cc1)Nc1ccccc1,IC50,[1],45.2 mg/L
same,IC90,[1],49.2 mg/L
same,IC99,[1],> 50 µg/mL
O=C(/N=N/c1ccc(Cl)cc1)Nc1ccccc1,IC50,[1],15.6 mg/L
same,IC90,[1],41.4 mg/L
same,IC99,[1],49.3 µg/mL
NNC(=O)c1ccncc1 [ISONIAZID],IC50,[1],0.04 mg/L
same,IC90,[1],0.11 mg/L
same,IC99,[1],0.13 µg/mL
COc1ccc(/N=N/C(=O)Nc2ccccc2)cc1,IC50,[1],12.1 mg/L
same,IC90,[1],38.4 mg/L
same,IC99,[1],42.2 µg/mL
O=C(/N=N/c1ccccn1)Nc1ccccc1,IC50,[1],27.1 mg/L
same,IC90,[1],46.9 mg/L
same,IC99,[1],> 50 µg/mL
CCOC(=O)/N=N/C(=O)Nc1ccc(C)cc1,selectivity ratio,[2],7.63
same,inhibition at 12.5 µg/mL,[11],40.3%
same,IC50,[5],20.8 mg/L
same,IC50,Mycobacterium ulcerans,7.25 mg/L
same,IC50,[1],2.72 mg/L
same,IC90,[1],4.07 mg/L
same,IC99,[1],7.97 µg/mL
same,IC50,[6],2.72 mg/L
same,IC50,[7],4.89 mg/L
same,IC50,[8],3.14 mg/L
same,Activity,[9],Non-toxic
same,fold change (FC),[10],10
O=C(/N=N/C(=O)Nc1ccc(F)cc1F)NCc1cccnc1,IC50,[1],38.6 mg/L
same,IC90,[1],> 50 mg/L
same,IC99,[1],> 50 µg/mL
O=C(/N=N/C(=O)Nc1ccc(F)cc1)NCc1ccncc1,IC50,[1],> 50 mg/L
same,IC90,[1],> 50 mg/L
same,IC99,[1],> 50 µg/mL
O=C(/N=N/c1ccc([N+](=O)[O-])cc1)Nc1ccccc1,selectivity ratio,[2],5.23
same,IC50,[5],14.4 mg/L
same,inhibition,[12],inactive
same,IC50,Mycobacterium ulcerans,5.67 mg/L
same,IC50,[1],2.75 mg/L
same,IC90,[1],6.23 mg/L
same,IC99,[1],16.5 µg/mL
same,IC50,[6],2.75 mg/L
same,IC50,[7],3.56 mg/L
same,IC50,[8],2.98 mg/L
same,Activity,[9],Non-toxic
same,fold change (FC),[10],10
O=C(/N=N/C(=O)Nc1ccc(F)cc1F)NCc1ccncc1,IC50,[1],33.3 mg/L
same,IC90,[1],> 50 mg/L
same,IC99,[1],> 50 µg/mL
O=C(/N=N/C(=O)Nc1ccc(F)cc1)NCc1cccnc1,IC50,[1],> 50 mg/L
same,IC90,[1],> 50 mg/L
same,IC99,[1],> 50 µg/mL
O=C(/N=N/c1nccc(C(F)(F)F)n1)Nc1ccccc1,IC50,[1],> 50 mg/L
same,IC90,[1],> 50 mg/L
same,IC99,[1],> 50 µg/mL
CCOC(=O)/N=N/C(=O)Nc1ccccc1,IC50,[1],17.2 mg/L
same,IC90,[1],33.8 mg/L
same,IC99,[1],> 50 µg/mL
